# From patent US20050020565A1, “CCK-1 receptor modulators” (priority 2003, published 2005)
# Molecular target: T1, CCK-1 receptor (Homo sapiens, UniProt P32238)
# T1 construct: expressed in transfected cells; membranes
# T1 sequence (P32238 1-428): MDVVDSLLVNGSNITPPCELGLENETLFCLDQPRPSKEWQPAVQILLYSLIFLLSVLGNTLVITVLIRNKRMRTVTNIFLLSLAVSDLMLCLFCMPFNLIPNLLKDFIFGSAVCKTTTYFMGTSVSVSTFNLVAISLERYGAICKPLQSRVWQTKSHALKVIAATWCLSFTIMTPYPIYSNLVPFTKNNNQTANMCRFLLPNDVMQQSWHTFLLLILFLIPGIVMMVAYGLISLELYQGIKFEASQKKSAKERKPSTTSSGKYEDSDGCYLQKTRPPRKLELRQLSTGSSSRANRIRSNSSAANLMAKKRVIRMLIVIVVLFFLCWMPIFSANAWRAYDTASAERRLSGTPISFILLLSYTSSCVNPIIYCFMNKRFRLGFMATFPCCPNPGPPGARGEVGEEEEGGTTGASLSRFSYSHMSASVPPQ
# Experiment: CCK-1 receptor radioligand binding assay ([125I]-BH-CCK-8S displacement, membranes of stably transfected CHO-K1 cells)
# Conditions: membranes of CHO-K1 cells stably transfected with CCK-1 receptor, 0.3 μM PD-134,308 present
# Method: CHO-K1 cells that had undergone-stable transfection with the CCK-1 receptor were grown in DMEM supplemented with L-glutamine (2 mM), penicillin (50 units/mL) and streptomycin (50 μg/mL). Cells were cultured under continuous G418 selection (2 mM) and were harvested using a rubber cell scraper. CHO-K1 cells were sub-cultured a maximum of ten times before being reseeded from the original stocks.
# Membranes were prepared from the stably transfected CHO-K1 cells. Frozen cell pellets (−40° C.) were thawed in 14 mL of buffer A (10 mM HEPES, 130 mM NaCl, 4.7 mM KCl, 5 mM MgCl, 1 mM EGTA and 15.4 mg/100 mL bacitracin at pH 7.2), adapted from Harper et al. (Br. J. Pharmacol. (1996) 118, pp 1717-1726). The thawed pellets were homogenized using a Polytron PT-10 (7×1 s). The homogenates were centrifuged for 5 min at 1500 rpm (600×g), and the resulting pellets were discarded. The supernatants were re-centrifuged in order to collect the receptor-membrane pellets (25 min 15,000 rpm; 39,800×g), which were re-suspended in buffer A.
# All assays were conducted in 96-well plates (GF/B millipore filter plates) using buffer A, with 0.3 μM PD-134,308, for the dilutions. The CCK-2 receptor ligand was included to eliminate the contribution of this receptor subtype to the binding. For the optimal cell number determination experiments 20 pM [1251]-BH—CCK-8S (50 μL 60 pM solution) was incubated with a range of cell concentrations (2.5×105 to 12.5×10^5 cells/well) in a total volume of 150 μL. Total binding of [1251]-BH—CCK-8S was determined in the presence of 15 μL of buffer A. Non-specific binding of [1 251]-BH—CCK-8S was determined in the presence of 15 μL of 100 μM 2-naphthalenesulphonyl L-aspartyl-(2-phenethyl)amide (2-NAP: see R. A. Hull et al., Br. J. Pharmacol. (1993) 108, pp 734-740), a CCK-1 receptor selective antagonist that is structurally unrelated to the radioligand [1251]-BH—CCK-8S. The assay preparation was incubated for 1 h at 21±3° C., and then the assay was terminated upon rapid filtration of the preparation under reduced pressure. The loaded filters were washed three times using undiluted PBS (100 μL), and then the residues were transferred to 5 mL scintillation tubes. Bound radioactivity was determined using a gamma counter (count time=1 min). From these experiments a cell concentration of 1 pellet in 40 mL of buffer (2.5×10^6 cells/mL) was chosen for use in other assays (below). To validate the radioligand concentration and incubation time for the assay, saturation and kinetic binding studies were also conducted (see M. F. Morton, The Pharmacological Characterization of Cholecystokinin Receptors in the Human Gastrointestinal Tract. PhD Thesis, University of London, 2000). The affinity of novel compounds was estimated by incubating membrane preparations with 15 μL of competing ligand (0.1 pM-1 mM) for 60 min at 21±3° C. The assay was then terminated according to the procedure outlined above.
# The pKi values were determined using the equation of Cheng and Prusoff (Biochem. Pharmacol. (1973) 22, pp 3099-3108): [formula]
# To circumvent problems associated with computer-assisted data analysis of compounds with low affinity, the data obtained in the current study were weighted according to a method described by Morton (2000). In brief, 100% and 0% specific binding were defined independently using total binding and binding obtained in the presence of a high concentration of the reference antagonist, 2-NAP.
row,Structure (SMILES),Ki
1,O=C(O)/C(=C/c1cc(-c2ccc3c(c2)OCO3)n(-c2cc(Cl)ccc2Cl)n1)c1cccc(Cl)c1 [Example 123],251 nM
2,COc1ccc(-n2nc(CC(C(=O)O)c3cccc(Cl)c3)cc2-c2ccc3c(c2)OCO3)cc1 (stereo not shown) [Example 221],15.8 nM
3,COc1ccc(-n2nc(CC(C(=O)O)c3cccc(Cl)c3)cc2-c2ccc(Cl)cc2)cc1 (stereo not shown) [Example 37],20 nM
4,Cc1ccc(-c2cc(CC(CS(=O)(=O)c3ncn[nH]3)c3cccc(C)c3)nn2-c2ccc(C)cc2)cc1 (stereo not shown) [Example 137],10 nM
5,COc1ccc(-n2nc(/C=C(\C(=O)O)c3ccc(Cl)c(Cl)c3)cc2-c2ccc(Cl)c(Cl)c2)cc1 [Example 118],5.01 nM
6,Cc1cccc(C(Cc2cc(-c3cccc(Cl)c3)n(C)n2)C(=O)O)c1 (stereo not shown) [Example 303],1260 nM
7,Cc1ccc(-n2nc(CC(C(=O)O)c3cccc(C)c3)cc2-c2ccc(N3CCCCC3)cc2)cc1 (stereo not shown) [Example 349],79.4 nM
8,COc1ccc(-n2nc(C[C@@H](C(=O)O)c3cccc4ccccc34)cc2-c2ccc3c(c2)OCO3)cc1 [Example 28],1260 nM
9,COc1ccc(-n2nc(/C=C(\C(=O)O)c3cccc(Cl)c3)cc2-c2ccc(Cl)c(Cl)c2)cc1 [Example 115],6.31 nM
10,Cc1ccc(-n2nc(CC(C(=O)O)c3cccc(C)c3)cc2-c2cccc(N(C)C)c2)cc1 (stereo not shown) [Example 91],12.6 nM
11,COc1ccc(-n2nc(C[C@@H](C(=O)O)c3cccc(C)c3)cc2-c2ccc(Cl)c(Cl)c2)cc1 [Example 3],251 nM
12,Cc1cccc(C(Cc2cc(-c3ccc(Cl)c(Cl)c3)nn2C)C(=O)O)c1 (stereo not shown) [Example 48],79.4 nM
13,COc1ccc(-n2nc(C[C@@H](C(=O)O)c3cccc4ccccc34)cc2-c2ccc(C)cc2)cc1 [Example 151],200 nM
14,Cc1ccc(-c2cc(CC(C[S+]([O-])c3ncn[nH]3)c3cccc(C)c3)nn2-c2ccc(C)cc2)cc1 (stereo not shown) [Example 136],6.31 nM
15,COc1ccc(-n2nc(C[C@H](CS(=O)(=O)c3ncn[nH]3)c3cccc(C)c3)cc2-c2ccc(Cl)c(Cl)c2)cc1 [Example 138],31.6 nM
16,Cc1ccc(-c2cc(CC(C(=O)O)c3ccc4c(c3)OCO4)nn2-c2ccc(Cl)c(Cl)c2)cc1 (stereo not shown) [Example 189],39.8 nM
17,COc1ccc(-n2nc(CC(C(=O)O)c3ccccc3C(F)(F)F)cc2-c2ccc(Cl)c(Cl)c2)cc1 (stereo not shown) [Example 19],31.6 nM
18,Cc1ccc(-n2nc(CC(C(=O)O)c3cccc(C)c3)cc2-c2ccc(N3CCCC3=O)cc2)cc1 (stereo not shown) [Example 104],39.8 nM
19,Cc1cccc(C(Cc2cc(-c3ccc(Oc4ccccc4)cc3)[nH]n2)C(=O)O)c1 (stereo not shown) [Example 305],2000 nM
20,COc1ccc(-n2nc(CC(C(=O)O)c3cccc(Cl)c3)cc2-c2ccc(C)cc2)cc1 (stereo not shown) [Example 7],7.94 nM
21,Cc1ccc(-n2nc(CC(C(=O)O)c3cccc(C)c3)cc2-c2ccc3ncccc3c2)cc1 (stereo not shown) [Example 106],63.1 nM
22,COc1ccc(-n2nc(C[C@H](C(=O)O)c3cccc(C)c3)cc2-c2ccc(Cl)c(Cl)c2)cc1 [Example 1],10 nM
23,O=C(O)/C(=C\c1cc(-c2ccc3c(c2)OCO3)n(-c2cc(Cl)ccc2Cl)n1)c1cccc(Cl)c1 [Example 122],1.58 nM
24,Cc1ccc(-c2cc(CC(C(=O)O)c3cccc4sccc34)nn2-c2ccc(Cl)c(Cl)c2)cc1 (stereo not shown) [Example 190],10 nM
25,Cc1cccc(C(Cc2cc(-c3ccc(OCc4ccccc4)cc3)n(-c3ccc(OC(F)(F)F)cc3)n2)C(=O)O)c1 (stereo not shown) [Example 58],501 nM
26,COc1ccc(-n2nc(CC(C(=O)O)c3c[nH]c4ccccc34)cc2-c2ccc(C)cc2)cc1 (stereo not shown) [Example 71],25.1 nM
27,COc1ccc(-n2nc(CC(C(N)=O)c3cccc(C)c3)cc2-c2ccc(C)cc2)cc1 (stereo not shown) [Example 65],2000 nM
28,COc1ccc(-n2nc(C[C@H](C(=O)O)c3cccc4ccccc34)cc2-c2ccc(C)cc2)cc1 [Example 152],12.6 nM
29,Cc1ccc(-n2nc(CC(C(=O)O)c3cccc(C)c3)cc2-c2ccc3ccccc3c2)cc1 (stereo not shown) [Example 271],15.8 nM
30,Cc1ccc(-c2cc(CC(C(=O)O)c3cccc4ccccc34)nn2-c2ccc(Cl)c(Cl)c2)cc1 (stereo not shown) [Example 181],15.8 nM

# Next, values leading:
row,Ki,Structure (SMILES)
1,15.8 nM,COc1ccc(-n2nc(C[C@@H](c3cccc(C)c3)c3nnn[nH]3)cc2-c2ccc(Cl)c(Cl)c2)cc1 [Example 129]
2,63.1 nM,Cc1cccc(C(Cc2cc(-c3ccc(Br)c(C)c3)n(C3CCCCC3)n2)C(=O)O)c1 (stereo not shown) [Example 308]
3,39.8 nM,Cc1cccc(C(Cc2cc(-c3ccc4ccccc4c3)nn2Cc2ccncc2)C(=O)O)c1 (stereo not shown) [Example 88]
4,6.31 nM,COc1ccc(-n2nc(CC(c3cccc(C)c3)c3nnn[nH]3)cc2-c2ccc(C)cc2)cc1 (stereo not shown) [Example 74]
5,31.6 nM,Cc1ccc(-n2nc(CC(C(=O)O)c3cccc(C)c3)cc2-c2ccc(N3CCCC3)cc2)cc1 (stereo not shown) [Example 352]
6,126 nM,COc1ccc(-n2nc(C[C@H](c3cccc(C)c3)c3nnn[nH]3)cc2-c2ccc(Cl)c(Cl)c2)cc1 [Example 131]
7,15.8 nM,Cc1ccc(-n2nc(CC(C(=O)O)c3cccc(C)c3)cc2-c2ccc(Br)cc2)cc1 (stereo not shown) [Example 77]
8,100 nM,Cc1cccc(C(Cc2cc(-c3ccc4ccccc4c3)nn2C2CCCCC2)C(=O)O)c1 (stereo not shown) [Example 50]
9,3.98 nM,Cc1ccc(-n2nc(CC(C(=O)O)c3cccc(C)c3)cc2-c2ccc(N(C)C)cc2)cc1 (stereo not shown) [Example 86]
10,12.6 nM,COc1ccc(-n2nc(CC(C(=O)O)c3cccc4ccccc34)cc2-c2ccc(Cl)c(Cl)c2)cc1 (stereo not shown) [Example 210]
11,15.8 nM,COc1ccc(-n2nc(CC(C(=O)O)c3cccc4sccc34)cc2-c2ccc(C)cc2)cc1 (stereo not shown) [Example 153]
12,12.6 nM,COc1ccc(-n2nc(CC(C(=O)O)c3coc4ccccc34)cc2-c2ccc(Cl)c(Cl)c2)cc1 (stereo not shown) [Example 261]
13,1260 nM,Cc1cccc(C(Cc2cc(-c3ccc4c(c3)OCO4)nn2CC2CCCCC2)C(=O)O)c1 (stereo not shown) [Example 82]
14,794 nM,Cc1ccc(-n2nc(-c3cccc(N(C)C)c3)cc2CC(C(=O)O)c2cccc(C)c2)cc1 (stereo not shown) [Example 90]
15,39.8 nM,Cc1cccc(C(Cc2cc(-c3ccc(Cl)c(Cl)c3)n(-c3ccc(S(C)(=O)=O)cc3)n2)C(=O)O)c1 (stereo not shown) [Example 54]
16,3160 nM,COc1ccc(-n2nc(CC(C(=O)O)c3cccnc3)cc2-c2ccc(Cl)cc2)cc1 (stereo not shown) [Example 208]
17,39.8 nM,COc1ccc(-n2nc(CC(C(=O)O)c3cccc(F)c3F)cc2-c2ccc(Cl)c(Cl)c2)cc1 (stereo not shown) [Example 18]
18,25.1 nM,Cc1ccc(-n2nc(CC(C(=O)O)c3cccc(C)c3)cc2-c2ccc3c(c2)CCN3C)cc1 (stereo not shown) [Example 87]
19,251 nM,COc1ccc(-n2nc(CC(C(=O)N3CCN(C)CC3)c3cccc(C)c3)cc2-c2ccc(C)cc2)cc1 (stereo not shown) [Example 68]
20,100 nM,Cc1ccc(-c2cc(CC(C(=O)O)c3ccccc3Cl)nn2Cc2ccccc2)cc1 (stereo not shown) [Example 43]
21,6.31 nM,Cc1cccc(C(Cc2cc(-c3ccc4c(c3)OCO4)n(-c3ccc(Cl)cc3Cl)n2)C(=O)O)c1 (stereo not shown) [Example 276]
22,15.8 nM,Cc1ccc(-n2nc(CC(C(=O)O)c3cccc(C)c3)cc2-c2ccc(N(C)C(C)C)cc2)cc1 (stereo not shown) [Example 101]
